Structures can show the parent of a compound that is named as a salt. Where two headings read alike, the source gives them in different places.
Assays:
[1] = tested on: mouse NSC neurosphere cultures; test: Dose-response curves and EC50, neurosphere MTT proliferation, 7 days; assay type: cell-based; details: Table 8, read-out: Neurosphere EC50
[2] = tested on: murine neural precursor cells (neurosphere cultures); test: HTS of LOPAC library against secondary neurosphere cultures, MTT proliferation assay at 3 μM, day 7 (z score, P value); assay type: cell-based, mouse
[3] = LOPAC primary screen, neurosphere MTT proliferation, 3 μM, day 7
[4] = yes/no: significantly inhibited neurosphere proliferation in primary screen
[5] = primary LOPAC screen, 3 μM, MTT, neurosphere proliferation
[6] = yes/no: significantly inhibited neurosphere proliferation in the primary screen
[7] = LOPAC library screen at 3 μM, secondary neurosphere cultures, MTT
[8] = LOPAC screen, neurosphere MTT proliferation, 3 μM, day 7
[9] = yes/no: significantly inhibited neurosphere proliferation (P<0.01) in primary screen
[10] = LOPAC library screen, 3 μM, MTT, secondary neurosphere cultures, day 7
[11] = yes/no: significantly inhibited neurosphere proliferation (P<0.01) in the primary screen
[12] = yes = significantly inhibited neurosphere proliferation (P<0.01) in the primary screen
[13] = LOPAC library screen, 3 μM, MTT, neurosphere cultures

CC[C@H](C)C(=O)O[C@H]1CCC=C2C=C[C@H](C)[C@H](CC[C@@H]3C[C@@H](O)CC(=O)O3)[C@H]21 [Mevastatin (20), Mevastatin]
EC50 ([1]; Mus musculus): 0.142 µM

Tyrphoslin AG 34 [Tyrphoslin AG 34 (37)]
EC50 [1]: 9.92 µM

CC(C)COC(=O)OCN1C(=O)CN(CCN2CC(=O)N(COC(=O)OCC(C)C)C(=O)C2)CC1=O [Sobuzaxane (19), Sobuzaxane]
EC50 [1]: 10.2 µM

CC[C@]1(O)C[C@@H]2CN(CCc3c([nH]c4ccccc34)[C@@](C(=O)OC)(c3cc4c(cc3OC)N(C)[C@H]3[C@@](O)(C(=O)OC)[C@H](OC(C)=O)[C@]5(CC)C=CCN6CC[C@]43[C@@H]65)C2)C1 [Vinblastine(22), Vinblastine]
EC50 ([1]; Mus musculus): 0.028 µM

CC(=O)O[C@H]1C(=O)[C@@]2(C)[C@H]([C@H](OC(=O)c3ccccc3)[C@]3(O)C[C@H](OC(=O)[C@H](O)[C@@H](NC(=O)c4ccccc4)c4ccccc4)C(C)=C1C3(C)C)[C@]1(OC(C)=O)CO[C@@H]1C[C@@H]2O [Taxol (21), Taxol]
EC50 ([1]; Mus musculus): 0.01 µM

Cc1ccc(O)c(N=Nc2ccccc2)n1 [SIB 1757]
Z Score [2]: −1.752
Z score [2, 3]: −1.752
Activity [2, 4]: no

C[C@H](NC(=O)/C(C#N)=C/c1ccc(O)c(O)c1)c1ccccc1 [Tyrphostin AG 835]
Z Score [2]: 2.23
Z score [2, 5]: 2.230
Activity [2, 6]: no

Cl.NCC(O)c1ccc(O)cc1 (racemic) [(±)-Octopamine hydrochloride]
Z score [2, 3]: −1.567
Activity [2, 4]: no

c1ccc2cc(-c3ncc[nH]3)ccc2c1 [Benazoline oxalate]
Z Score [2, 7]: −0.3348
Z score [2, 8]: −0.335
Activity [2, 9]: no

C[C@H](CS)C(=O)N1CCC[C@H]1C(=O)O [Captopril]
Z Score [2, 10]: −1.285
Z score [2, 8]: −1.285
Activity [2, 9]: no

CCCN(CCC)[C@@H]1CCc2c(F)ccc(O)c2C1.Cl [R(+)-UH-301 hydrochloride]
Z Score [2]: −2.517
Z score [2, 3]: −2.517
Activity [2, 11]: yes

CCn1c(=O)[nH]c2cc(Cl)c(Cl)cc21 [DCEBIO]
Z Score [2]: 0.8099
Z score [2, 8]: 0.810
Activity [2, 9]: no

Cl.O=C(O)C1CCCN(CCC=C(c2ccccc2)c2ccccc2)C1 (stereo not drawn) [SKF 89976A hydrochloride]
Z Score [2]: −0.2328
Z score [2, 3]: −0.233
Activity [2, 4]: no

COc1ccccc1N1CCN(CCCNc2cc(=O)n(C)c(=O)n2C)CC1 [Urapidil hydrochloride]
Z Score ([2]; 168 h, 3 µM): 0.1572
Z score ([2]; 168 h, 3 µM): 0.157
Activity [2, 6]: no

(−)-Tetramisole hydrochloride
Z Score [2, 10]: −1.866

CC1=C(CC(=O)O)c2cc(F)ccc2/C1=C\c1ccc(S(C)(=O)=O)cc1 [Sulindac sulfone]
Z Score [2]: 0.5924
Z score [2, 3]: 0.592
Activity [2, 4]: no

NC/C=C/C(=O)O [(E)-4-amino-2-butenoic acid]
Z Score [2, 10]: −2.149
Z score [2, 5]: −2.149
Activity [2, 6]: no

N#C/C(=C\c1ccc(O)c(O)c1)C(=O)NCCCc1ccccc1 [Tyrphostin AG 555]
Z Score [2, 7]: −0.6812
Z score [2, 5]: −0.681
Activity [2, 6]: no

Cc1cn([C@H]2C=C[C@@H](CO)O2)c(=O)[nH]c1=O [2′,3′-didehydro-3′-deoxythymidine]
Z Score [2, 10]: −1.878
Z score [2, 8]: −1.878
Activity [2, 9]: no

Cc1cn[nH]c1.Cl [4-Methylpyrazole hydrochloride]
Z Score [2]: 1.042
Z score [2, 3]: 1.042
Activity [2, 12]: no

Iproniazid phosphate
Z Score [2, 7]: −0.2492
Z score [2, 3]: −0.249
Activity [2, 9]: no

Nc1nc(SCc2ccc([N+](=O)[O-])cc2)c2ncn([C@@H]3O[C@H](CO)[C@@H](O)[C@H]3O)c2n1 [S-(4-Nitrobenzyl)-6-thioguanosine]
Z Score [2, 13]: 0.1017
Z score [2, 3]: 0.102
Activity [2, 4]: no

CC(C)C1C2CCC(C2)C1N.Cl (stereo not drawn) [AGN 192403 hydrochloride]
Z Score [2]: 0.7032
Z score [2, 5]: 0.703
Activity [2, 6]: no

COCCc1ccc(OCC(O)CNC(C)C)cc1.O=C(O)C(O)C(O)C(=O)O (stereo not drawn) [(B1)-Metoprolol (+)-tartrate]
Z Score [2]: −0.2689

N[C@@H](COP(=O)(O)O)C(=O)O [O-Phospho-L-serine]
Z Score [2, 13]: 0.5472
Z score [2, 3]: 0.547
Activity [2, 4]: no

CC(C)(C)c1cc(/C=C(\C#N)C(N)=S)cc(C(C)(C)C)c1O [Tyrphostin AG 879]
Z Score [2, 10]: −1.607
Z score [2, 5]: −1.607
Activity [2, 6]: no

COc1cccc(C(=O)NCCN2CCN(c3ccc(Cl)cc3)CC2)c1 [N-(2-[4-(4-Chlorophenyl)piperazin-1-yl]ethyl)-3-methoxybenzamide]
Z Score [2, 13]: 0.3828
Z score [2, 3]: 0.383
Activity [2, 11]: no

O=C(CCCN1CCC2(CC1)C(=O)NCN2c1ccccc1)c1ccc(F)cc1 [Spiperone hydrochloride]
Z Score [2, 7]: −0.5168
Z score [2, 3]: −0.517
Activity [2, 4]: no

O=c1onc2cnc3ccccc3n12 [ODQ]
Z Score [2]: −0.5922
Z score [2, 3]: −0.592
Activity [2, 4]: no

Oc1cc2c(cc1O)[C@H]1c3ccccc3CN[C@@H]1CC2 (racemic) [Dihydrexidine hydrochloride]
Z Score [2, 7]: −0.4153
Z score [2, 8]: −0.415
Activity [2, 9]: no

Br.CCSC(=N)N [S-Ethylisothiourea hydrobromide]
Z Score ([2]; 168 h, 3 µM): −1.599
Z score ([2]; 168 h, 3 µM): −1.599
Activity [2, 9]: no

Cc1nccc2c1[nH]c1ccccc12 [Harmane]
Z Score [2]: −1.403
Z score [2, 3]: −1.403

Cl.Nc1ccn([C@@H]2O[C@H](CO)[C@@H](O)[C@@H]2O)c(=O)n1
Z Score [2, 10]: −11.27
Z score [2, 3]: −11.274
Activity [2, 11]: yes

O=C(O)/C=C\C(=O)O.O=C(O)/C=C\C(=O)O.c1cc(CN2CCCCC2)cc(OCCCNc2nc3ccccc3s2)c1 [SKY 95282 dimaleate]
Z Score [2]: 0.4241

N#CC(C#N)=Cc1cc(O)c(O)c(O)c1 [Tyrphostin 25]
Z Score [2]: −0.2591
Z score [2, 3]: −0.259
Activity [2, 4]: no

C=C(C)[C@H]1Cc2c(ccc3c2O[C@@H]2COc4cc(OC)c(OC)cc4[C@@H]2C3=O)O1 [Rotenone]
Z Score [2]: −11.27
Z score [2, 3]: −11.274
Activity [2, 12]: yes

Oc1ccc(Cn2ccnc2S)cc1 [1-(4-Hydroxybenzyl)imidazole-2-thiol]
Z Score ([2]; 168 h, 3 µM): 0.7628
Z score ([2]; 168 h, 3 µM): 0.763
Activity [2, 9]: no

CC(C)C[C@H](N)CSSC[C@@H](N)CC(C)C.Cl.Cl [L-Leucinethiol, oxidized dihydrochloride]
Z Score [2]: −0.584
Z score [2, 3]: −0.584
Activity [2, 9]: no

Clc1ccc(Cn2c(CN3CCCC3)nc3ccccc32)cc1 [Clemizole hydrochloride]
Z Score ([2]; LOPAC library screen at 3 μM, MTT, secondary neurosphere cultures, screened in singlets): 2.788
Z score [2, 8]: 2.788
Activity [2, 9]: no

CN(C)CCCN1c2ccccc2CCc2ccccc21 [Imipramine hydrochloride]
Activity [2]: no
Z Score [2, 7]: −0.5272
Z score [2, 3]: −0.527

NCCS(=O)O [Hypotaurine]
Activity [2]: no
Z Score [2]: 0.2752
Z score [2]: 0.275

CC(C)(C)[C@]1(O)CCN2C[C@H]3c4ccccc4CCc4cccc(c43)[C@@H]2C1.Cl [(B1)-Butaclamol hydrochloride]
Z Score [2]: −5.934

Cl.N=C(N)NC(=N)Nc1cccc(Cl)c1 [1-(m-Chlorophenyl)-biguanide hydrochloride]
Z Score [2]: 1.795
Z score [2, 3]: 1.795
Activity [2, 11]: no

O=C(O)/C=C/c1ccc(O)c(O)c1 [Caffeic Acid]
Z Score [2, 13]: 0.3199
Z score [2, 8]: 0.320
Activity [2, 9]: no

R(−)-Denopamine
Z Score [2, 10]: −4.486
Z score [2, 3]: −4.486
Activity [2, 11]: yes

Cl.OC(CCN1CCCCC1)(c1ccccc1)C1CCCCC1 (stereo not drawn) [Trihexylphenidyl hydrochloride]
Z score [2, 5]: 1.215
Activity [2, 6]: no

Reference: US8058243B2, “Method for treating a brain cancer with ifenprodil” (HSC Research and Development Limited Partnership, priority 2006, dated 2011)
